Read-outs that look alike come from different tables or passages of the source.
Columns and labels:
[1] = system: P. falciparum female gametocytes; experiment: P. falciparum Dual Gamete Formation Assay (PfDGFA), female readout (Pfs25-positive female gametes); type: cell-based, Plasmodium falciparum NF54; conditions: for IC50: PfDGFA, 24 h incubation with gametocytes before induction, female gamete readout, read-out: Female IC50
In short: (§1)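 First, day-14 P. falciparum NF54 gametocytes receive compound for 24 h at 37°C in 1% O2/3% CO2. Next, ookinete medium with Cy3 anti-Pfs25 triggers gametogenesis at 28°C and male exflagellation is imaged. Finally, after 24 h in the dark, Cy3-labelled females are imaged.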

[2] = system: P. falciparum male gametocytes; experiment: P. falciparum Dual Gamete Formation Assay (PfDGFA), male readout (exflagellation); type: cell-based, Plasmodium falciparum NF54; conditions: for % inhibition male (individual replicates) R3: replicate R3; for IC50: PfDGFA, 24 h incubation with gametocytes before induction, exflagellation readout, read-out: Male IC50
In short: as §1

[3] = PfDGFA at 2µM, 24h preincubation with gametocytes prior to induction of gametogenesis, replicate R1
[4] = PfDGFA at 2µM, 24h preincubation with gametocytes prior to induction of gametogenesis, replicate R3
[5] = PfDGFA at 2µM, 24h preincubation with gametocytes prior to induction of gametogenesis, replicate R4
[6] = PfDGFA at 2µM, 24h preincubation, average of replicates
[7] = PfDGFA at 2µM, 24h preincubation with gametocytes prior to induction of gametogenesis
[8] = number of replicates with >50% inhibition in the female readout, 2µM
[9] = number of replicates with >50% inhibition in the male readout, 2µM
[10] = 2µM, 24h preincubation with gametocytes prior to induction of gametogenesis, average of replicates
[11] = 2µM, 24h preincubation with gametocytes prior to induction of gametogenesis, replicate R1
[12] = 2µM, 24h preincubation with gametocytes prior to induction of gametogenesis, replicate R3
[13] = 2µM, 24h preincubation with gametocytes prior to induction of gametogenesis, replicate R4
[14] = 2µM, 24h preincubation with gametocytes prior to induction of gametogenesis
[15] = PfDGFA at 2µM, 24h preincubation with gametocytes, average of replicates
[16] = PfDGFA at 2µM, 24h preincubation with gametocytes, replicate R1
[17] = PfDGFA at 2µM, 24h preincubation with gametocytes, replicate R3
[18] = PfDGFA at 2µM, 24h preincubation with gametocytes, replicate R4
[19] = PfDGFA at 2µM, 24h preincubation with gametocytes

CCCCOc1ccc(N2C(N)=NC(N)=NC2(C)C)cc1.Cl [TCMDC-124279]
% inhibition female (individual replicates) R1 [1, 3]: 2.1%
% inhibition female (individual replicates) R3 [1, 4]: -37.2%
% inhibition female (individual replicates) R4 [1, 5]: 21.1%
Average inhibition female (%) [1, 6]: -3.8%
% inhibition male (individual replicates) R1 [2, 3]: -7.3%
% inhibition male (individual replicates) R3 [2, 7]: -37.1%
% inhibition male (individual replicates) R4 [2, 5]: -28.5%
Average inhibition male (%) [2, 6]: -17.0%

CCOc1cc(Cc2cnc(N)nc2N)cc(OCC)c1O [TCMDC-137181]
% inhibition female (individual replicates) R1 [1, 3]: -0.02%
% inhibition female (individual replicates) R3 [1, 4]: 1.9%
% inhibition female (individual replicates) R4 [1, 5]: -15.6%
Average inhibition female (%) [1, 6]: -3.9%
% inhibition male (individual replicates) R1 [2, 3]: 23.6%
% inhibition male (individual replicates) R3 [2, 7]: 21.9%
% inhibition male (individual replicates) R4 [2, 5]: 11.2%
Average inhibition male (%) [2, 6]: 22.7%

c1ccc2[nH]c(CN(Cc3nc4ccccc4[nH]3)Cc3nc4ccccc4[nH]3)nc2c1 [TCMDC-124132]
Selectivity ratio F ([1]; HepG2 Tox50 versus female IC50): 10.00
inhibition at 2 µM ([1]; Plasmodium falciparum, PfDGFA at 2µM, 24h preincubation with gametocytes, average of replicates, read-out: Average inhibition female (%)): 5%
inhibition at 2 µM ([1]; Plasmodium falciparum, PfDGFA at 2µM, 24h preincubation with gametocytes, replicate R1, read-out: % inhibition female (individual replicates) R1): 1.1%
inhibition at 2 µM ([1]; Plasmodium falciparum, PfDGFA at 2µM, 24h preincubation with gametocytes, replicate R2, read-out: % inhibition female (individual replicates) R2): -7.6%
inhibition at 2 µM ([1]; Plasmodium falciparum, PfDGFA at 2µM, 24h preincubation with gametocytes, replicate R3, read-out: % inhibition female (individual replicates) R3): 23.9%
inhibition at 2 µM ([1]; Plasmodium falciparum, PfDGFA at 2µM, 24h preincubation with gametocytes, replicate R4, read-out: % inhibition female (individual replicates) R4): 2.5%
IC50 ([1]; Plasmodium falciparum): > 10000 nM
HitlevelF [1, 8]: 0
Selectivity Ratio M ([2]; HepG2 Tox50 versus male IC50): 14.81
inhibition at 2 µM ([2]; Plasmodium falciparum, PfDGFA at 2µM, 24h preincubation with gametocytes, average of replicates, read-out: Average inhibition male (%)): 78.3%
inhibition at 2 µM ([2]; Plasmodium falciparum, PfDGFA at 2µM, 24h preincubation with gametocytes, replicate R1, read-out: % inhibition male (individual replicates) R1): 68.8%
inhibition at 2 µM ([2]; Plasmodium falciparum, PfDGFA at 2µM, 24h preincubation with gametocytes, replicate R2, read-out: % inhibition male (individual replicates) R2): 80.9%
inhibition at 2 µM ([2]; Plasmodium falciparum, PfDGFA at 2µM, 24h preincubation with gametocytes, replicate R4, read-out: % inhibition male (individual replicates) R4): 85.2%
IC50 ([2]; Plasmodium falciparum): 6750 nM
HitlevelM [2, 9]: 3

Nc1ccc2[nH]cc(C3CCN(CCC4CCN(C(=O)/C=C/c5ccc(Cl)c(Cl)c5)CC4)CC3)c2n1 [TCMDC-140062]
Average inhibition female (%) [1, 10]: 24.0%
% inhibition female (individual replicates) R1 [1, 11]: 25.9%
% inhibition female (individual replicates) R3 [1, 12]: 21.4%
% inhibition female (individual replicates) R4 [1, 13]: 19.8%
HitlevelF ([1]; 2µM, 24h preincubation, number of replicates with >50% inhibition in the female readout): 0
Average inhibition male (%) [2, 10]: 34.7%
% inhibition male (individual replicates) R1 [2, 11]: 41.7%
% inhibition male (individual replicates) R3 [2, 14]: -5.5%
% inhibition male (individual replicates) R4 [2, 13]: 54.9%
HitlevelM ([2]; 2µM, 24h preincubation, number of replicates with >50% inhibition in the male readout): 1

COc1cc2c(c(Cl)c1OC)CCN(C(=O)C(F)(F)F)CC2c1ccccc1 (stereo not shown) [TCMDC-132071]
% inhibition female (individual replicates) R1 [1, 3]: 4.5%
% inhibition female (individual replicates) R3 [1, 4]: -4.3%
% inhibition female (individual replicates) R4 [1, 5]: 10.0%
Average inhibition female (%) [1, 6]: 2.1%
% inhibition male (individual replicates) R1 [2, 3]: 5.3%
% inhibition male (individual replicates) R3 [2, 7]: 19.8%
% inhibition male (individual replicates) R4 [2, 5]: -8.3%
Average inhibition male (%) [2, 6]: 3.7%

CC1(C)CC(NCCCCCCCOc2ccc(OCc3ccccc3)cc2)CC(C)(C)N1.Cl [TCMDC-138958]
Average inhibition female (%) [1, 15]: 23.9%
% inhibition female (individual replicates) R1 [1, 16]: 22.5%
% inhibition female (individual replicates) R3 [1, 17]: -1.0%
% inhibition female (individual replicates) R4 [1, 18]: 34.0%
HitlevelF [1, 8]: 0
Average inhibition male (%) [2, 15]: 66.7%
% inhibition male (individual replicates) R1 [2, 16]: 71.0%
% inhibition male (individual replicates) R3 [2, 19]: 36.7%
% inhibition male (individual replicates) R4 [2, 18]: 78.9%
HitlevelM [2, 9]: 3

COc1cc(C(=O)N2CCN(C(C)C)CC2)ccc1CN(C)CCCCN1CCN(c2cccc(Cl)c2Cl)CC1.Cl [TCMDC-136506]
Average inhibition female (%) [1, 10]: 13.2%
% inhibition female (individual replicates) R1 [1, 11]: 17.9%
% inhibition female (individual replicates) R3 [1, 12]: 17.6%
% inhibition female (individual replicates) R4 [1, 13]: 12.7%
HitlevelF ([1]; 2µM, 24h preincubation, hits selected on >50% inhibition in the female readout across replicates): 0
Average inhibition male (%) [2, 10]: 24.1%
% inhibition male (individual replicates) R1 [2, 11]: 21.0%
% inhibition male (individual replicates) R3 [2, 14]: -5.5%
% inhibition male (individual replicates) R4 [2, 13]: 30.9%
HitlevelM ([2]; 2µM, 24h preincubation, hits selected on >50% inhibition in the male readout across replicates): 1
Activity ([2]; PfDGFA at 2µM, 24h preincubation, hit = >50% inhibition in male or female readout in at least 3 replicates, 0 = no class assigned): 0

CC(=NNC(=S)NCCc1ccccc1)c1ccccn1 [TCMDC-124270]
Average inhibition female (%) [1, 15]: 36.2%
% inhibition female (individual replicates) R1 [1, 16]: 25.2%
% inhibition female (individual replicates) R3 [1, 17]: 20.9%
% inhibition female (individual replicates) R4 [1, 18]: 55.8%
IC50 [1]: 530 nM
HitlevelF [1, 8]: 1
Average inhibition male (%) [2, 15]: 63.1%
% inhibition male (individual replicates) R1 [2, 16]: 70.1%
% inhibition male (individual replicates) R3 [2, 19]: 69.5%
% inhibition male (individual replicates) R4 [2, 18]: 18.9%
IC50 [2]: 640 nM
HitlevelM [2, 9]: 3
